Source: US11524960B2, “Heterobicyclic inhibitors of MAT2A and methods of use for treating cancer” (AGIOS PHARMACEUTICALS, INC., priority 2018, dated 2022)

What was measured:
MAT2A homodimer = target: T1, MAT2A homodimer (Homo sapiens, UniProt P31153); test: Biochemical assay: inhibition of MAT2A (phosphate release, PiColorLock Gold); settings: MAT2A IC50 score; read-out: Enzyme Inhibition (Example 275)
T1 construct: inferred from Ni sepharose purification and imidazole elution; made in house; host or cells: Sf9 insect cells, recombinant baculovirus (Bac to Bac, pFASTBAC1)
T1 sequence (P31153 whole entry): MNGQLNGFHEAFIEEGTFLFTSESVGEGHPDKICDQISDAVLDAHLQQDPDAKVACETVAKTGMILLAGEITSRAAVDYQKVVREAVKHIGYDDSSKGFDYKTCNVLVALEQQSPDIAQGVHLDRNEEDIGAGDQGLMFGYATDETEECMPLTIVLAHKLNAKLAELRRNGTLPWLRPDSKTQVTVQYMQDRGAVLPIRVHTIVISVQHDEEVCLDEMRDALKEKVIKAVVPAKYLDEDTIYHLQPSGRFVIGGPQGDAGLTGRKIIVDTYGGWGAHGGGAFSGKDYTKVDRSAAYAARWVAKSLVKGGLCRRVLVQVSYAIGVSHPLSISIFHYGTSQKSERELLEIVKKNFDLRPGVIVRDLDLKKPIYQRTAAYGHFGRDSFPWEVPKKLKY
Procedure, shortened: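 Phosphate formed alongside SAM was read with PiColorLock Gold and quantified against a potassium phosphate standard curve. Reactions ran 60 min at 25 °C after adding a substrate mix of 500 μM ATP and 400 μM L-methionine (mix concentrations). Compound had first been preincubated 60 min with recombinant Sf9-derived MAT2A homodimer ([…]) in pH 8.0 Tris buffer containing MgCl2, KCl, EDTA and BSA.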

[1] = test system: SAM in HCT116 human colon carcinoma cell line engineered to delete the MTAP gene (MTAP −/−); test: Cellular assay of target engagement (SAM) by LC-MS/MS; assay type: cell-based; settings: Homo sapiens, HCT-116, 72 h, IC50 score, read-out: Cell 72 h SAM Inhibition (MTAP −/−; Example 276)
Description: Measurement of MAT2A activity in cells was made by direct quantitation of the abundance of the product of its enzymatic activity, SAM. Cancer cells were treated with candidate MAT2A inhibitors for a suitable incubation period, and the cells were then lysed using a reagent which quenched any further enzyme activity. Soluble metabolites including SAM were collected and SAM itself was directly measured from the lysate using quantitative LC-MS/MS.
A typical assay was performed using an HCT116 human colon carcinoma cell line which was genetically engineered to delete the MTAP gene (commercially available from Horizon Discovery). This cell line was utilized because it was determined that loss of the MTAP gene predicts sensitivity to MAT2A inhibitors. Cells were plated in 96-well dishes at appropriate cell density. Following 24 hours, cells were then treated with the candidate MAT2A inhibitor. Prior to addition to cells, the compound was first serially diluted in 100% DMSO, typically as a 3-fold serial dilution starting at 500× top dose with 10 dose points including DMSO only control. Compound was then transferred to a working stock plate in cell culture media by adding 5 μl of compound in DMSO to 495 μl of cell culture media. This working stock was then added to cells via a further 5-fold dilution, by adding 25 μl of working stock to 100 μl of cells in culture media. Following compound addition, cells were incubated at 37° C./5% CO2 for 72 hrs.
To quantitate SAM levels following compound treatment, cells were gently washed once in Ammonium Carbonate buffer (75 mM at pH 7.4), placed on dry ice, and lysed with metabolite extraction buffer (80% cold methanol and 20% water (v/v) with acetic acid at 1 M final concentration with 200 ng/mL deuterated d3-SAM as internal control). Following centrifugation at 4° C. at 3,200 rpm for 30 minutes, the supernatant was collected and stored at −80° C. until analysis by Liquid Chromatography with tandem Mass Spectrometry (LC-MS/MS). LC-MS/MS analysis was performed using an API6500 Mass Spectrometer (Sciex, Framingham, Mass., USA) operating in positive ion spray mode and equipped with a Waters UPLC Acquity (Waters, Milford, Mass., USA) BEH Amide column. Multiple Reaction Monitoring data was acquired for SAM and the d3-SAM standard, using a mass transition pair at m/z 399.2→250.1 and 402.2→250.1, respectively. In a typical LC-MS/MS analysis, the initial flow rate was 0.5 ml/min of 25% mobile phase A (acetonitrile and water at 5:95 (v/v) with 1% formic acid and 10 mM ammonium acetate) and 75% mobile phase B (acetonitrile and water at 95:5 (v/v) with 1% formic acid and 10 mM ammonium acetate), 0.2-0.5 minutes with 75%-35% mobile phase B, 25%-65% mobile phase A, at 0.5 min 65% mobile phase A and 35% mobile phase B, 1.0-1.1 minutes with 35%-75% mobile phase B, 65%-25% mobile phase A, at 1.1 min 25% mobile phase A and 75% mobile phase B with a total run time of 1.5 minutes.

HCT116 MTAP−/− = test: Inhibition of cellular proliferation (Cell Titer Glo), HCT116 MTAP−/−; assay type: cell-based, human; settings: Homo sapiens, HCT-116, 96 h, 4 days, IC50 score, read-out: 4 Day Relative Growth Inhibition (MTAP −/−; Example 277)
Description: (§1) Test compound impact on cancer cell growth was assessed by treating cancer cells with compound for 4 days and then measuring proliferation using an ATP-based cell proliferation readout (Cell Titer Glo, Promega Corporation).
(§2) In a typical assay an isogenic pair of HCT116 human colon carcinoma cell lines which vary only in MTAP deletion status (HCT116 MTAP+/+ and HCT116 MTAP−/−) were plated in 96-well dishes at appropriate cell density. Following 24 hours, cells were then treated with the candidate MAT2A inhibitor. Prior to addition to cells, the compound was first serially diluted in 100% DMSO, typically as a 3-fold serial dilution starting at 500× top dose with 10 dose points including DMSO only control. Compound was then transferred to a working stock plate in cell culture media by adding 5 μl of compound in DMSO to 495 μl of cell culture media. This working stock was then added to cells via a further 5-fold dilution, by adding 25 μl of working stock to 100 μl of cells in culture media. Following compound addition, cells were incubated at 37° C./5% C02 for 4 days.
(§3) To measure inhibition of cellular proliferation, cells were allowed to equilibrate to room temperature for 30 minutes, and were then treated with 125 μl of Cell Titer Glo reagent. The plate was then covered with aluminum foil and shaken for 15 minutes to ensure complete mixing and full cell lysis. Luminescent signal was then measured using a plate-based luminometer Veritas version 1.9.2 using ATP standard curve to confirm assay reproducibility from run to run. This luminescence measure was converted to a proliferation index by subtracting from each data point the ATP luminescence signal measured from a bank (no cells) well and dividing by the ATP luminescence signal measured in 0.2% DMSO control well adjusted for signal in blank well. Compound activity was then represented as a percentage change in proliferation relative to a within-plate DMSO control against log10 of compound concentration in molar (M) units.

HCT116 MTAP+/+ = test: Inhibition of cellular proliferation (Cell Titer Glo), HCT116 MTAP+/+; assay type: cell-based, human; settings: Homo sapiens, HCT-116, 96 h, 4 days, IC50 score, read-out: 4 Day Relative Growth Inhibition (MTAP +/+; Example 277)
Description: as §1, §2, §3

In the case of CCOc1cnc2cn(-c3ccc4nn(C)cc4c3)c(=O)c(-c3ccc(OC)cc3)c2n1 [Example 140-A], the IC50 (MAT2A homodimer) is reported as less than 0.1 µM, the IC50 [1] is reported as less than 0.1 µM and the IC50 (HCT116 MTAP−/−) is reported as less than 0.1 µM. It also gave an IC50 (HCT116 MTAP+/+) greater than 10 µM.
CCOc1ccc2cn(-c3ccc4ncccc4c3)c(=O)c(-c3ccc(C4CC4)nc3)c2n1 [Example 231, 8-(6-cyclopropylpyridin-3-yl)-2-ethoxy-6-(quinolin-6-yl)-1,6-naphthyridin-7(6H)-one] gave an IC50 (MAT2A homodimer) of less than 0.1 µM, an IC50 [1] of less than 0.1 µM and an IC50 (HCT116 MTAP−/−) of 0.1 to 10 µM. For the same compound, the IC50 (HCT116 MTAP+/+) was greater than 10 µM.
Compound Cn1cc2cc(-n3cc4ccc(OCC(F)F)nc4c(-c4ccc(OC(F)(F)F)nc4)c3=O)ccc2n1 [Example 125-A] has an IC50 (MAT2A homodimer) of less than 0.1 µM, an IC50 [1] of less than 0.1 µM and an IC50 (HCT116 MTAP−/−) of less than 0.1 µM. For the same compound, the IC50 (HCT116 MTAP+/+) was 0.1 to 10 µM.
Cn1cc2cc(-n3cc4ccc(OCC(F)(F)F)nc4c(-c4ccc(OC(F)F)nc4)c3=O)ccc2n1 [Example 110-A] was tested, and the IC50 (MAT2A homodimer) was less than 0.1 µM, the IC50 [1] was less than 0.1 µM and the IC50 (HCT116 MTAP−/−) was less than 0.1 µM. The IC50 (HCT116 MTAP+/+) was 0.1 to 10 µM.
Work on O=c1c(-c2ccc(C3CC3)cc2)c2nc(NCC(F)(F)F)ncc2cn1-c1ccc2ncsc2c1 [Example 166, 6-(benzo[d]thiazol-6-yl)-8-(4-cyclopropylphenyl)-2-((2,2,2-trifluoroethyl)amino)pyrido[4,3-d]pyrimidin-7(6)-one] yielded an IC50 (MAT2A homodimer) of less than 0.1 µM, an IC50 [1] of less than 0.1 µM and an IC50 (HCT116 MTAP−/−) of less than 0.1 µM. For the same compound, the IC50 (HCT116 MTAP+/+) was greater than 10 µM.
COc1ccc(-n2cc3ccc(NCC(F)(F)F)nc3c(-c3ccc(OC(F)F)cc3)c2=O)cc1 [Example 241, 8-(4-(difluoromethoxy)phenyl)-6-(4-methoxyphenyl)-2-(2,2,2-trifluoroethylamino)-1,6-naphthyridin-7(6H)-one] was tested, and the IC50 (MAT2A homodimer) was less than 0.1 µM, the IC50 [1] was less than 0.1 µM and the IC50 (HCT116 MTAP−/−) was less than 0.1 µM. For the same compound, the IC50 (HCT116 MTAP+/+) was 0.1 to 10 µM.
COc1ccc(-c2c(=O)n(-c3ccc4nn(C)cc4c3)cc3ncc(OCC(F)F)nc23)cc1 [Example 141-A] showed an IC50 (MAT2A homodimer) of less than 0.1 µM, an IC50 [1] of less than 0.1 µM and an IC50 (HCT116 MTAP−/−) of less than 0.1 µM. The IC50 (HCT116 MTAP+/+) was 0.1 to 10 µM.
With CCOc1ccc2cn(-c3ccc4ncccc4c3)c(=O)c(-c3ccc(OC(F)F)nc3)c2n1 [Example 232, 8-(6-(difluoromethoxy)pyridin-3-yl)-2-ethoxy-6-(quinolin-6-yl)-1,6-naphthyridin-7(6H)-one] the IC50 (MAT2A homodimer) was less than 0.1 µM, the IC50 [1] was less than 0.1 µM and the IC50 (HCT116 MTAP−/−) was less than 0.1 µM. It also gave an IC50 (HCT116 MTAP+/+) greater than 10 µM.
With Cn1cnc2ccc(-n3cc4ccc(OCC(F)(F)F)nc4c(-c4ccc(OC(F)F)nc4)c3=O)cc21 [Example 127-A] the IC50 (MAT2A homodimer) was less than 0.1 µM, the IC50 [1] was 0.1 to 1 µM and the IC50 (HCT116 MTAP−/−) was less than 0.1 µM. For the same compound, the IC50 (HCT116 MTAP+/+) was 0.1 to 10 µM.
In the case of CCOc1ccc2cn(-c3ccc4nn(C)cc4c3)c(=O)c(-c3ccc(Cl)cc3)c2n1 [Example 247, 8-(4-chlorophenyl)-2-ethoxy-6-(2-methyl-2H-indazol-5-yl)-1,6-naphthyridin-7(6H)-one], the IC50 (MAT2A homodimer) is reported as less than 0.1 µM, the IC50 [1] is reported as less than 0.1 µM and the IC50 (HCT116 MTAP−/−) is reported as less than 0.1 µM. It also gave an IC50 (HCT116 MTAP+/+) of 0.1 to 10 µM.
